Experimental data published in patent US9629816B2, “Small molecule therapeutic compounds targeting thioesterase deficiency disorders and methods of using the same” (The United States of America, as represented by the …, priority 2011, dated 2017).
Values joined by “and” are separate entries in the source; they are usually repeats but may differ in a detail not shown here. Equal values may be shown once.

Key:
[1] = Cleavage of thioester linkage in [14C]palmitoyl-CoA, release of free [14C]palmitate (TLC, autoradiography); type: biochemical; conditions: varying concentrations; various incubation times; [14C]palmitate production
Protocol: It has been reported that thioester linkages in s-acylated proteins are labile, and that compounds having nucleophilic properties are able to disrupt such linkages. Thus, the ability of derivatives of hydroxylamine to disrupt thioester linkages in s-acylated proteins was tested. Twelve HA-derivatives, described in Table 1, were screened for their ability to cleave thioester linkage in [^14C]palmitoyl˜CoA (a model thioester substrate of PPT1), mediating the release of free [^14C]palmitic acid, a process depicted in FIG. 2. […] [^14C]-palmitoyl-CoA was incubated for 1 hour with each of the HA derivatives and the reaction mixture was resolved by thin layer chromatography (TLC) followed by autoradiography. The free [^14C]-palmitate bands were visible and quantitated by densitometric analysis of the bands.

INCL fibroblasts = assay: TEM analysis of GRODs in cultured INCL fibroblasts; type: cell-based, human; conditions: 250 μM for 3 weeks vs untreated fibroblasts (FIG. 10)
Protocol: Transmission electron microsocopy (TEM) of INCL lymphoblasts and fibroblasts was performed. Briefly, cells were first treated with 250 μM NtBuHA for 3 weeks. Medium was replaced with fresh 250 μM of NtBuHA at every 72 hours. After treatment, cells were fixed with 2.5% glutaraldehyde in sodium phosphate buffer, washed three times with Millonig's phosphate buffer and stained with 2.5% uranyl acetate. Ultra-thin sections were then prepared using AO Reichert Ultracut ultramicrotome, stained with lead citrate and examined by using Zeiss EM10 CA.
Accordingly, untreated- and NtBuHA-treated cultured INCL lymphoblasts were analyzed using TEM.

PPT1-KO mice [2] = assay: Autofluorescence of brain tissues of PPT1-KO mice; type: in vivo, mouse; conditions: vs untreated PPT1-KO mice (FIG. 13)
Protocol: All animal experiments were performed according to the institutional guidelines after an animal protocol was approved by the Animal Care and Use Committee of the National Institute of Child Health and Development, National Institutes of Health. PPT1-KO mice (a gift from Dr. S. L. Hofmann, University of Texas Southwestern Medical Center at Dallas, Dallas, Tex., USA) were generated by targeted disruption of the last exon in the PPT1 gene in embryonic stem (ES) cells. These mice were subsequently backcrossed for 10 generations with wild type C57BL/6 mice in order to obtain congenic C57 background and a breeding pair was provided by Dr. Mark Sands to start the inventors' colony. Animals were housed and maintained in a pathogen-free facility. Three-month old PPT-KO mice were given NtBuHA in their drinking water (1 mM NtBuHA and 1 mM NaCl).
Accumulation of intracellular autofluorescent lipopigment material in the brain and other tissues is a characteristic pathological finding in INCL patients and in PPT1-KO mice. Given this, it was hypothesized that NtBuHA-mediated depletion of GRODs may also reduce the intensity of autofluorescence in brain tissues of NtBuHA-treated PPT1-KO mice. Accordingly, a comparison of the autofluorescence of brain tissues from NtBuHA-treated PPT 1-KO mice, untreated PPT 1-KO mice, and wild-type litter-mates was performed.

PPT1-KO mice [3] = assay: Western blot of caspase-9 and cleaved PARP-1 in cortical tissue homogenates of PPT1-KO mice; type: in vivo, mouse; conditions: cortical tissue homogenates (FIG. 17)
Protocol: Western blot analysis was performed as using standard methodology. Briefly 30 μg of protein was resolved in 4-12% Bis tris gel (Invitrogen) and electro-transferred in PVDF membrane. The membranes were blocked with 5% non fat dried milk for 1 hour at room temperature and were then probed overnight with primary antibody at 4 C. After washing the blots were incubated with horseradish peroxidase conjugated secondary antibody (Santacruz Biotechnology) for 1 hour at room temperature and developed using enhanced chemiluminescences detection reagents (Pierce). Primary antibodies used in this study were caspase-3, caspase-9 (cell signaling) SOD2, catalase, β-Actin (US Biologicals).
It has been reported that postmortem brain tissues from INCL patients as well as those from PPT1-KO mice manifest high levels of oxidative stress, which induces neuronal apoptosis contributing to neuropathology. […] Accordingly, a terminal deoxynucleotidyl transferase dUTP nick end labeling (TUNEL) assay was performed using cortical tissue sections from wild-type, untreated PPT1-KO and NtBuHA-treated PPT1-KO mice to determine the level of apoptosis. […] Quantitative analysis of the NeuN-positive cells in brain tissues from wild-type, untreated and NtBuHA-treated PPT1-KO mice (FIG. 18D) confirmed the visual assessment.

PPT1-KO mice [4] = assay: Blood methemoglobin level in PPT1-KO mice; type: in vivo, mouse
Protocol: The ability of the HA-derivative NtBuHA to increase methemoglobin levels was tested by placing PPT1-KO mice on a diet containing NtBuHA. After three months on the diet, the level of methemoglobin in the animal's blood was measured.

PPT1-KO mice [5] = assay: Open field test, exploratory behavior of PPT1-KO mice; type: in vivo, mouse; conditions: 6-month and 8-month old PPT1-KO mice (FIG. 19E-F)
Source text: Since NtBuHA functionally mimics PPT1, the inventors tested 6-month and 8-month old wild-type, untreated- and NtBuHA-treated PPT1-KO mice for motor coordination and exploratory behavior. The Rotarod Performance Test, which measures parameters such as riding time (seconds) and/or endurance was used to measure motor coordination. The open field test was utilized to evaluate the exploratory behavior.

PPT1-KO mice [6] = assay: Toxicity of dietary NtBuHA in Ppt1-KO mice; type: in vivo, mouse
Source text: Thus, toxicity of HA precludes its clinical use. However, HA-derivatives may be non-toxic. […] (See Table 1 for a listing of these HA-derivatives). […] (See Table 3).

With `CC(C)(C)NO` [NtBuHA, N-(tert-Butyl)hydroxylamine] the “dose- and time-dependence of thioester linkage cleavage in [14C]palmitoyl-CoA” value [1] was “cleaved the thioester linkage in a dose-dependent and time-dependent manner”, the “GRODs in INCL fibroblasts” value (INCL fibroblasts) was “significantly lower number of GRODs with markedly reduced size and density” and the “autofluorescence of brain tissues” value (PPT1-KO mice [2]) was “markedly reduced autofluorescence”. For the same compound, the “caspase-9 and cleaved PARP-1 level” value (PPT1-KO mice [3]) was “marked reduction in caspase-9 and cleaved PARP-1 level”, the “% Methemoglobin” value (PPT1-KO mice [4]; individual NtBuHA-treated PPT1-KO mice, three months on diet, blood) was 0% and 0.5% and 0.7% and 0.6% and the “% Methemoglobin, Mean” value (PPT1-KO mice [4]; mean of 4 NtBuHA-treated PPT1-KO mice, three months on diet, blood) was 0.45%. For the same compound, the “effect on methemoglobin levels” value (PPT1-KO mice [4]; treatment up to three months) was “does not increase methemoglobin levels”, the “exploratory behavior (open field)” value (PPT1-KO mice [5]) was “retained near normal motor function (FIG. 19A-D) as well as exploratory behavior” and the “toxicity in Ppt1-KO mice” value (PPT1-KO mice [6]) was “showed no toxicity”.
